Test results: patent publication US6903126B2, “1-Aryl-2-N-, S- or O-substituted benzimidazole derivatives, their use for the production of pharmaceutical agents as well as pharmaceutical preparations that contain these derivatives” (Schering AG, priority 2001, dated 2005)
pIC50: −log10 of the molar value.

Tested on: primary rat microglia
Assay: Inhibition of microglia activation (Aβ-peptide stimulation, MTS reduction)
Format: cell-based
Settings: Aβ-peptide-activated primary rat microglia, compound added day 5, MTS reduction on day 7, relative to DMSO control
Experimental: For in vitro production of Aβ-activated microglia, primary rat microglia with synthetic Aβ-peptide are incubated:
For simulation of Aβ deposits, synthetic Aβ peptide is dried on 96-hole tissue culture plates. A peptide stock solution is diluted by 2 mg/ml of H2O 1:50 in H2O. To coat the 96-hole plates, 30 μl of this dilute peptide solution/hole is used, and it is dried overnight at room temperature.
Primary rat microglia are harvested by mixed glia cultures, which were obtained from P3 rat brains. In the production of mixed glia cultures, the brains are taken from 3-day-old rats, and meninges are removed. The isolation of cells is achieved by trypsinization (0.25% trypsin solution, 15 minutes, 37° C.)). After undigested tissue fragments are separated with the aid of a 40 μm nylon mesh, the isolated cells are centrifuged off (800 rpm/10 minutes). The cell pellet is resuspended in the culture medium and moved into 100 ml tissue culture flasks (1 brain/tissue culture flask). […]
To quantify the microglia reactivity, the metabolic activity is measured on cultivation day 7 via the reduction of MTS (3-(4,5-dimethylthiazol-2-yl)-5-(3-carboxymethoxyphenyl)-2-(sulfophenyl)-2H-tetrazolium), Owen's reagent, Baltrop, J. A. et al. Bioorg. & Med. Chem. Lett., 1, 6111 (1991)). […]

SMILES | pIC50
COC(=O)CCCCCOc1ccc2nc(S(=O)(=O)Cc3ccccc3)n(-c3ccc(C)cc3)c2c1 [Example 9, 6-[[1-(4-Methylphenyl)-2-(phenylmethanesulfonyl)-1H-benzimidazol-6-yl]oxy]hexanoic acid methyl ester] | 6.34
COC(=O)CCCCCOc1ccc2nc(N3CCOCC3)n(-c3ccccc3)c2c1 [Example 15, 6-[[2-(Morpholin-4-yl)-1-phenyl-1H-benzimidazol-6-yl]oxy]hexanoic acid methyl ester] | 6.06
